PubChem BioAssay (NCI)
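Assay format: 96-well plates, 48-hour exposure. TGI marks complete inhibition of growth.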

What was measured:
Experiment in all cases: NCI-60 cell line screen, 48 h
[1] = system: DMS 273 small cell lung
[2] = system: SK-MEL-2 melanoma
[3] = system: DLD-1 colon
[4] = system: SF-268 CNS
[5] = system: SNB-78 CNS
[6] = system: KM12 colon
[7] = system: SF-539 CNS
[8] = system: UO-31 renal
[9] = system: DMS 114 small cell lung
[10] = system: A498 renal

Measured: TGI

COc1ccc([C@H]2c3cc4c(cc3OC(O)(CO)[C@H]2C(=O)O)OCO4)c(OC)c1 (stereo not given in full) (tested in a mixture with another compound)
> 100 µM: [1] | [2] | [3] | [4] | [5] | [6] | [7] | [8] | [9] | [10]
